Measured values taken from patent publication US6994981B2, “Modulators of paraptosis and related methods” (The Buck Institute, priority 2002, dated 2006).
Residues, ends and D or L forms follow the SMILES beside them. No end group written: not given here. *: point of attachment. Cbz = O=C(OCc1ccccc1)*; CH2F = FC*

What was measured:
[1] = test system: 293T cells transfected with NK1R; test: SP-induced, NK1R-mediated cell death in 293T cells transfected with NK1R, trypan blue and staining; assay type: cell-based, human; settings: caspase inhibitors at 50 μM
Protocol: (§1) Human embryonic kidney 293T cells were grown as described in Example I. Transient transfection was performed using Superfect (Qiagen) as described by the manufacturer. Briefly, 2×10^5 cells/well were seeded into 35 mm wells 16 hr prior to transfection. Superfect:DNA complexes were added at a 5 μl:2 μg ratio for 3 hr; then the medium was replaced and after 24 hr SP was added. At 24–48 hr after addition of SP cell death was quantified as follows: the media containing floating cells were collected and centrifuged 10 min at 2000×g, the pellet was resuspended in PBS/trypan blue and the cells were counted using a hematocytometer. When other compounds were used, they were added at the same time as SP: zVAD.fmk or BAF was added at 50 μM and obtained from Enzyme System Products, Livermore, Calif.
Briefly, the method entailed cloning the full-length (1.2 kb) NK1R cDNA (Genbank Accession No. M31477) by RT-PCR from adult rat hippocampal RNA into the XbaI/EcoRI sites of the vector pcDNA3.1 (Invitrogen), using the following oligonucleotides: forward 5′[…] 3′ (SEQ ID NO:2); reverse 5′[…] 3′ (SEQ ID NO:3).
Cells were stained according to the manufacturer's instructions (Clontech). Briefly, cellswere washed with binding buffer and incubated with FITC-Annexin-V or EGFPAnnexin-V for 5–10 min and fixed with 4% paraformaldehyde.
Cells were fixed 10 min with 4% paraformaldehyde and stained according to the manufacturer's instructions (Promega).
(§2) The protein kinase inhibitors were added 30 min before SP exposure at the following concentrations: 10 μM Rp-8-Br-cAMPS (adenosin 3′,5′-cyclic monophosphorothioate, 8-bromo-, Rp-isomer, sodium salt) which is a PKA inhibitor; 50 nM Calphostin C, which is a PKC inhibitor; 10 μM PD 98059 which is a MAPKK (MEK) inhibitor. These compounds were obtained from Calbiochem. Viability was quantified by trypan blue staining of the total cell population.

paraptosis = settings: cited from earlier work
[2] = test system: striatal, cortical, and hippocampal neurons; test: SP-induced cell death in primary striatal, cortical and hippocampal neurons, trypan blue viability and staining; assay type: cell-based, rat
Protocol: Rat neuronal primary cell cultures were also used to assay for inducers and inhibitors of paraptosis. Briefly, primary striatal, cortical and hippocampal cultures were prepared from 17-day-old Sprague-Dawley rat embryos (B&K). The tissue was dissected, minced and trypsinized for five minutes using 0.25% trypsin (Cell Grow). After the addition of 10% horse serum (Life Technologies) to inhibit the trypsin, the cell suspension was triturated 15–20 times with a 10 ml syringe and centrifuged for five minutes at 800×g. The pellet was resuspended in MEM-PAK (UCSF Cell Culture facility), supplemented with 2.02 gm glucose, 2 mM GLUTAMAX™ (Life Technologies) and penicillin/streptomycin (100 U/ml). The suspension was filtered through a […] cell strainer and the final culture medium contained 5% horse serum. Subsequently, 3-4×10^5 cells per Cm^2 were seeded onto either poly-D-lysine precoated 8-well chamber slides (Becton-Dickson Labware) or 96 well plates precoated with […] of poly-D-lysine (Sigma) in water. After 30 minutes of incubation time, unattached cells were removed together with the medium and replaced with glucose enriched MEM-PAK plus 5% horse serum. The cultures were then incubated at 37° C. in 95% air 5% carbon dioxide with 95% humidity. Cultures were used for experiments between day 1 and day 7 when glial contamination was at a minimum.
Primary neuronal cells were prepared as described in Example I. SP (SIGMA) at a concentration of 0.1 nM–100 μM was added 24–48 hrs after seeding, in the presence of 2.5% horse serum. When the cultures were maintained for more than 5 days, 10 μM cytosine arabinoside was added for 24 hours, beginning 3 days after plating the cells. Viability was quantified by trypan blue staining of the total cell population.
The following compounds were added at the same time as SP in the indicated experiments: 5 nM L-732, 138; 1 nM L-733,060; 1 μg/ml Actinomycin D or 1 μg/ml Cycloheximide. All of these compounds were obtained from SIGMA. The caspase inhibitors zVAD.fmk and BAF were added at 50 μM and obtained from Enzyme System Products, Livermore, Calif.
Either neuronal primary cultures or human embryonic kidney 293T cells were fixed with 4% paraformaldehyde and stained with 0.5 μg/ml DAPI (Molecular Probes) or Hoechst(SIGMA). […]
as §2

[3] = test system: caspase-8 transfected cells; test: Apoptosis induced by over-expression of caspase-8 in 293T cells; assay type: cell-based, human; settings: caspase inhibitors at 50 μM
Protocol: as §1

[4] = test system: paraptosis induced by caspase 7, caspase 8 or caspase 9; test: Inhibition of paraptosis induced by caspases; assay type: cell-based
Protocol: (§3) Test compounds were added to IGFIR-IC transfected 293T cells at the time of transfection.

[5] = test system: rat neuronal primary cell cultures; test: Induction of paraptosis in rat neuronal primary cell cultures, LDH cell death assay; assay type: cell-based
Protocol: Rat neuronal primary cell cultures were also used to assay for inducers and inhibitors of paraptosis. Briefly, primary striatal, cortical and hippocampal cultures were prepared from 17-day-old Sprague-Dawley rat embryos (B&K). The tissue was dissected, minced and trypsinized for five minutes using 0.25% trypsin (Cell Grow). After the addition of 10% horse serum (Life Technologies) to inhibit the trypsin, the cell suspension was triturated 15–20 times with a 10 ml syringe and centrifuged for five minutes at 800×g. The pellet was resuspended in MEM-PAK (UCSF Cell Culture facility), supplemented with 2.02 gm glucose, 2 mM GLUTAMAX™ (Life Technologies) and penicillin/streptomycin (100 U/ml). […]
Subsequently, compounds were added to 293T cells and/or rat neuronal primary cell culture cells in order to determine if the compounds could induce paraptosis. Cell death was assayed using the lactate dehydrogenase (LDH) assay, in which the relative amount of enzyme released from dying cells in the medium is measured by following the disappearance of nicotinamide adenine dinucleotide, reduced form (NADH) in the following reaction: pyruvate+NADH <−>NAD^++ lactate. […] NADH disappearance was assessed by kinetic photmetric readings at a 340 nm wavelength at 19 minute intervals over a period of 2 hours and 30 minutes.

[6] = test system: IGFIR-IC transfected 293T cells; test: Inhibition of IGFIR-IC induced paraptosis in transfected 293T cells, LDH assay; assay type: cell-based, human; settings: concentration not given
Protocol: Paraptosis was induced in 293T cells by expressing the intracellular domain of the insulin-like growth factor I receptor (IGFIR-IC) in these cells using transient transfection as described above.
as §3
The TRAF2 dominant negative mutant contains a deletion of the amino terminal 271 amino acids of the protein. The ratio of IGFIR-IC:AIP1 and IGFIR-IC:TRAF2DN was 1:3. […] Antisense oligonucleotide constructs for JNK1 or JNK2 (50–100 nM) were transfected into 293T cells one day before transfection with the IGFIR-IC construct. For all inhibition assays, cell viability was measured using the LDH assay.

SP-induced paraptosis = test: Inhibition of SP-induced paraptosis, cells not specified; assay type: cell-based; settings: concentration not given
[7] = biological target: neurokinin-1 receptor (NK1R) (Rattus norvegicus, UniProt P14600); settings: cited from earlier work
Chain of neurokinin-1 receptor (NK1R) (P14600 whole entry): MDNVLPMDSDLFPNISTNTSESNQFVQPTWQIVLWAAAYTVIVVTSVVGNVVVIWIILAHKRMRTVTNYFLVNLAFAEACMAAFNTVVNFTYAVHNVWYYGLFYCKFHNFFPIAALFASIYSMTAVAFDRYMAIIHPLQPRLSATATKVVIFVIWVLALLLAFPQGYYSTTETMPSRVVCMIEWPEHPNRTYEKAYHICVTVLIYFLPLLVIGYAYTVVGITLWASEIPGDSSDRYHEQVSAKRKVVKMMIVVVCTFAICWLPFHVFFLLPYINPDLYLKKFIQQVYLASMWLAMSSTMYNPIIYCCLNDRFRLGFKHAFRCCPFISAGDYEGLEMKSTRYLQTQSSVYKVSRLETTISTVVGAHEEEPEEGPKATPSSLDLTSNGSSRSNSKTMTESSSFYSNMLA

COC(=O)C[C@H](NC(=O)[C@H](C)NC(=O)[C@@H](NC(=O)OCc1ccccc1)C(C)C)C(=O)CF [zVAD.fmk] (Cbz-Val-Ala-Asp(OMe)-CH2F)
effect on NK1R-mediated cell death in 293T cells [1]: lack of effect | effect of caspase inhibitors on paraptosis (paraptosis): lack of effect | effect on SP-induced cell death in neurons ([2]; caspase inhibitors at 50 μM): not inhibited | effect on apoptosis induced by over-expression of caspase-8 [3]: completely abolished | inhibition of paraptosis induction by caspase-7 and caspase-8 [4]: subject to inhibition

N[C@@H](CCC(=O)O)C(=O)O [Glutamic Acid, (S)-2-aminopentanedioic acid]
concentration at which found to induce paraptosis [5]: 50 to 500 µM

N#CC(=C(/N)Sc1ccccc1N)/C(C#N)=C(/N)Sc1ccccc1N [UO126]
effect on IGFIR-induced paraptosis [6]: can be inhibited | effect on SP-induced paraptosis (SP-induced paraptosis): can be inhibited

SP 6–11: truncated form of SP containing amino acids 6 through 11 of the SP polypeptide (QFFGLM; ends and bridges not checked)
induction of cell death by NK1R agonists ([2]; compared with SP): able to induce cell death as well as SP | affinity for NK1R [7]: good affinity
